Patent US20070128217A1 (priority 2003, published 2007)

How the values were obtained:
[1] = tested on: antibodies in sera from SARS patients (sera 1a, 1b, 2, 6, 37, 62, London, SARS-yellow, SARS-green); type: binding, human; set-up: Binding of serum 6 to linear peptides of protein X1 of SARS-CoV Urbani / Binding of serum 37 to linear peptides of protein X1 of SARS-CoV Urbani / Binding of serum 6 to looped/cyclic peptide (PEPSCAN-ELISA) / Binding of serum 37 to looped/cyclic peptide (PEPSCAN-ELISA) / Binding of serum 37 to looped/cyclic peptides of protein X1 of SARS-CoV Urbani / Binding of serum 6 to linear peptides of protein X2 / Binding of serum 37 to linear peptides of protein X2 / Binding of serum 37 to looped/cyclic peptides of protein X2 of SARS-CoV Urbani / Binding of serum 6 to linear peptides of protein M of SARS-CoV Urbani / Binding of serum 37 to linear peptides of protein M of SARS-CoV Urbani / Binding of serum 6 to looped/cyclic peptides of protein M of SARS-CoV Urbani / Binding of serum 37 to looped/cyclic peptides of protein M of SARS-CoV Urbani / Binding of serum 6 to linear peptides of protein X3 of SARS-CoV Urbani / Binding of serum 37 to linear peptides of protein X3 of SARS-CoV Urbani / Binding of serum 37 to looped/cyclic peptides of protein X3 of SARS-CoV Urbani / Binding of serum 6 to linear peptides of protein X4 of SARS-CoV Urbani / Binding of serum 37 to linear peptides of protein X4 of SARS-CoV Urbani / Binding of serum 37 to looped/cyclic peptides of protein X4 of SARS-CoV Urbani / Binding of serum 6 to linear peptides of protein X5 of SARS-CoV Urbani / Binding of serum 37 to linear peptides of protein X5 of SARS-CoV Urbani / Binding of serum 37 to looped/cyclic peptides of protein X5 of SARS-CoV Urbani / Binding of serum 6 to linear peptides of protein N of SARS-CoV Urbani / Binding of serum 37 to linear peptides of protein N of SARS-CoV Urbani / Binding of serum 6 to linear peptide (PEPSCAN-ELISA) / Binding of serum 1a to looped/cyclic peptides of protein N of SARS-CoV Urbani / Binding of serum 1b to looped/cyclic peptides of protein N of SARS-CoV Urbani / Binding of serum 2 to looped/cyclic peptides of protein N of SARS-CoV Urbani / Binding of serum 6 to looped/cyclic peptides of protein N of SARS-CoV Urbani / Binding of serum 37 to looped/cyclic peptides of protein N of SARS-CoV Urbani / Binding of serum 62 to looped/cyclic peptides of protein N of SARS-CoV Urbani / Binding of serum London to looped/cyclic peptides of protein N of SARS-CoV Urbani / Binding of serum SARS-green to looped/cyclic peptides of protein N of SARS-CoV Urbani: unit not given here
[2] = tested on: control sera (pooled serum of ten healthy LUMC hospital workers; commercial negative donor pooled serum from the Dutch bloodbank); type: binding, human; set-up: Binding of Control serum LUMC to linear peptides / Binding of Control serum Blood-bank to linear peptides / Binding of Control serum LUMC to looped peptides / Binding of Control Serum Blood-Bank to Looped peptides / Binding of Control serum LUMC to linear peptides of the protein M of SARS-CoV Urbani / Binding of Control serum Blood-bank to linear peptides of the protein M of SARS-CoV Urbani / Binding of Control serum LUMC to looped peptides of the protein M of SARS-CoV Urbani / Binding of Control Serum Blood-Bank to Looped peptides of the protein M of SARS-CoV Urbani: unit not given here
[3] = tested on: rabbit serum obtained by immunizing a rabbit with the SARS-CoV strain Frankfurt 1; type: binding; set-up: Binding of a rabbit serum to linear peptides / Binding of a rabbit serum to looped peptides / Rabbit serum linear peptides / Rabbit serum looped peptides / Binding of a rabbit serum to linear peptides of protein N of SARS-CoV Urbani (Rabbit serum linear peptides) / Binding of a rabbit serum to looped/cyclic peptides of protein N of SARS-CoV Urbani (Rabbit serum looped peptides): unit not given here
[4] = tested on: recombinant human anti-SARS-CoV antibody 03-018; type: binding; set-up: Binding of antibody 03-018 to linear peptides of the N protein of SARS-CoV Urbani / Binding of antibody 03-018 to looped/cyclic peptides of the N protein of SARS-CoV Urbani: unit not given here

QDLIRQGTDYKHWPQ
Binding of serum 1a to linear peptides of protein N of SARS-CoV Urbani [1]: 0.2
Binding of serum 1a to looped/cyclic peptides of protein N of SARS-CoV Urbani [1]: 0.3
Binding of serum 1b to linear peptides of protein N of SARS-CoV Urbani [1]: 0.1
Binding of serum 1b to looped/cyclic peptides of protein N of SARS-CoV Urbani [1]: 0.2
Binding of serum 2 to linear peptides of protein N of SARS-CoV Urbani [1]: 0.2
Binding of serum 2 to looped/cyclic peptides of protein N of SARS-CoV Urbani [1]: 0.3
Binding of serum 6 to linear peptides of protein N of SARS-CoV Urbani [1]: 0.2
Binding of serum 6 to looped/cyclic peptides of protein N of SARS-CoV Urbani [1]: 0.2
Binding of serum 37 to linear peptides of protein N of SARS-CoV Urbani [1]: 0.6
Binding of serum 37 to looped/cyclic peptides of protein N of SARS-CoV Urbani [1]: 0.5
Binding of serum 62 to linear peptides of protein N of SARS-CoV Urbani [1]: 0.5
Binding of serum 62 to looped/cyclic peptides of protein N of SARS-CoV Urbani [1]: 0.4
Binding of serum London to linear peptides of protein N of SARS-CoV Urbani [1]: 0.4
Binding of serum London to looped/cyclic peptides of protein N of SARS-CoV Urbani [1]: 0.4
Binding of serum SARS-green to linear peptides of protein N of SARS-CoV Urbani [1]: 0.2
Binding of serum SARS-green to looped/cyclic peptides of protein N of SARS-CoV Urbani [1]: 0.2
Binding of serum SARS-yellow to linear peptides of protein N of SARS-CoV Urbani [1]: 0.4
Binding of serum SARS-yellow to looped/cyclic peptides of protein N of SARS-CoV Urbani [1]: 0.3
Binding of Control Serum Blood-Bank to Looped peptides [2]: 0.6
Binding of Control serum Blood-bank to linear peptides [2]: 0.7
Binding of Control serum LUMC to linear peptides [2]: 0.6
Binding of Control serum LUMC to looped peptides [2]: 0.5
Binding of a rabbit serum to linear peptides of protein N of SARS-CoV Urbani (Rabbit serum linear peptides) [3]: 0.1
Binding of a rabbit serum to looped/cyclic peptides of protein N of SARS-CoV Urbani (Rabbit serum looped peptides) [3]: 0.2
Binding of antibody 03-018 to linear peptides of the N protein of SARS-CoV Urbani [4]: 0.1
Binding of antibody 03-018 to looped/cyclic peptides of the N protein of SARS-CoV Urbani [4]: 0.2

QFAPSASAFFGMSRI
Binding of serum 1a to linear peptides of protein N of SARS-CoV Urbani [1]: 0.2
Binding of serum 1a to looped/cyclic peptides of protein N of SARS-CoV Urbani [1]: 0.4
Binding of serum 1b to linear peptides of protein N of SARS-CoV Urbani [1]: 0.1
Binding of serum 1b to looped/cyclic peptides of protein N of SARS-CoV Urbani [1]: 0.2
Binding of serum 2 to linear peptides of protein N of SARS-CoV Urbani [1]: 0.1
Binding of serum 2 to looped/cyclic peptides of protein N of SARS-CoV Urbani [1]: 0.4
Binding of serum 6 to linear peptides of protein N of SARS-CoV Urbani [1]: 0.1
Binding of serum 6 to looped/cyclic peptides of protein N of SARS-CoV Urbani [1]: 0.2
Binding of serum 37 to linear peptides of protein N of SARS-CoV Urbani [1]: 0.4
Binding of serum 37 to looped/cyclic peptides of protein N of SARS-CoV Urbani [1]: 0.6
Binding of serum 62 to linear peptides of protein N of SARS-CoV Urbani [1]: 0.4
Binding of serum 62 to looped/cyclic peptides of protein N of SARS-CoV Urbani [1]: 0.7
Binding of serum London to linear peptides of protein N of SARS-CoV Urbani [1]: 0.4
Binding of serum London to looped/cyclic peptides of protein N of SARS-CoV Urbani [1]: 0.4
Binding of serum SARS-green to linear peptides of protein N of SARS-CoV Urbani [1]: 0.1
Binding of serum SARS-green to looped/cyclic peptides of protein N of SARS-CoV Urbani [1]: 0.5
Binding of serum SARS-yellow to linear peptides of protein N of SARS-CoV Urbani [1]: 0.5
Binding of serum SARS-yellow to looped/cyclic peptides of protein N of SARS-CoV Urbani [1]: 0.3
Control Serum Blood-Bank Looped peptides [2]: 0.6
Control serum Blood-bank linear peptides [2]: 0.7
Control serum LUMC linear peptides [2]: 0.5
Control serum LUMC looped peptides [2]: 0.6
Binding of a rabbit serum to linear peptides of protein N of SARS-CoV Urbani (Rabbit serum linear peptides) [3]: 0.1
Binding of a rabbit serum to looped/cyclic peptides of protein N of SARS-CoV Urbani (Rabbit serum looped peptides) [3]: 0.4
Binding of antibody 03-018 to linear peptides of the N protein of SARS-CoV Urbani [4]: 0.1
Binding of antibody 03-018 to looped/cyclic peptides of the N protein of SARS-CoV Urbani [4]: 0.3

QGLPNNTASWFTALT
Binding of serum 1a to linear peptides of protein N of SARS-CoV Urbani [1]: 0.2
Binding of serum 1a to looped/cyclic peptides of protein N of SARS-CoV Urbani [1]: 0.4
Binding of serum 1b to linear peptides of protein N of SARS-CoV Urbani [1]: 0.1
Binding of serum 1b to looped/cyclic peptides of protein N of SARS-CoV Urbani [1]: 0.3
Binding of serum 2 to linear peptides of protein N of SARS-CoV Urbani [1]: 0.2
Binding of serum 2 to looped/cyclic peptides of protein N of SARS-CoV Urbani [1]: 0.5
Binding of serum 6 to linear peptides of protein N of SARS-CoV Urbani [1]: 0.1
Binding of serum 6 to looped/cyclic peptides of protein N of SARS-CoV Urbani [1]: 0.3
Binding of serum 37 to linear peptides of protein N of SARS-CoV Urbani [1]: 0.6
Binding of serum 37 to looped/cyclic peptides of protein N of SARS-CoV Urbani [1]: 0.7
Binding of serum 62 to linear peptides of protein N of SARS-CoV Urbani [1]: 0.7
Binding of serum 62 to looped/cyclic peptides of protein N of SARS-CoV Urbani [1]: 0.7
Binding of serum London to linear peptides of protein N of SARS-CoV Urbani [1]: 0.4
Binding of serum London to looped/cyclic peptides of protein N of SARS-CoV Urbani [1]: 0.5
Binding of serum SARS-green to linear peptides of protein N of SARS-CoV Urbani [1]: 0.2
Binding of serum SARS-green to looped/cyclic peptides of protein N of SARS-CoV Urbani [1]: 0.6
Binding of serum SARS-yellow to linear peptides of protein N of SARS-CoV Urbani [1]: 0.6
Binding of serum SARS-yellow to looped/cyclic peptides of protein N of SARS-CoV Urbani [1]: 0.7
Binding of Control Serum Blood-Bank to Looped peptides [2]: 0.8
Binding of Control serum Blood-bank to linear peptides [2]: 0.6
Binding of Control serum LUMC to linear peptides [2]: 0.7
Binding of Control serum LUMC to looped peptides [2]: 0.8
Binding of a rabbit serum to linear peptides of protein N of SARS-CoV Urbani (Rabbit serum linear peptides) [3]: 0.1
Binding of a rabbit serum to looped/cyclic peptides of protein N of SARS-CoV Urbani (Rabbit serum looped peptides) [3]: 0.6
Binding of antibody 03-018 to linear peptides of the N protein of SARS-CoV Urbani [4]: 0.1
Binding of antibody 03-018 to looped/cyclic peptides of the N protein of SARS-CoV Urbani [4]: 0.3
